Patent US7517913B2, “Polyamine conjugates with acidic retinoids and preparation thereof” (priority 2002, dated 2009)
Where a name gives a salt, the structure may show the parent alone.

Assays:
[1] = test system: RNase P from Dictyostelium discoideum; settings: literature; RNase P isolated from D. discoideum and from normal human epidermal keratinocytes; cited from earlier work
[2] = test system: RNase P isolated from D. discoideum; settings: literature reports; RNase P from D. discoideum and normal human epidermal keratinocytes; cited from earlier work
[3] = target: RNase P isolated from D. discoideum; experiment: RNase P inhibition assay, enzyme from D. discoideum; assay type: biochemical, Dictyostelium discoideum; settings: negative intercept of slope replots, 37° C., buffer D, 10% DMSO
Excerpt: Inhibitory Activity on RNAse P. We have developed a method by which we can estimate rapidly the biological activity of the polyamine-retinoid conjugates. This method is based on the effect of the polyamine-retinoid conjugates on RNase P activity and is described in detail under the EXAMPLE 7. All synthesized conjugates were screened for their effect on RNase P activity by constructing the dose response curves. […] In order to carry out such analysis, the initial velocity in the presence or absence of the conjugate was determined from the initial slopes of time plots. The data plotted in double reciprocal plots (1/v versus 1/[S]) with increasing concentrations of polyamine-retinoid conjugates and the Ki values (the dissociation constant of the inhibitor (I), where I is a polyamine-retinoid conjugate, with the enzyme) were determined from the replots of the slopes of the double reciprocal plots versus the inhibitor's concentration (Papadimou et al., J. BIOL. CHEM. 273, 24375 (1998), Papadimou et al., SKIN PHARMACOL. APPL. SKIN PHYSIOL. 13, 345 (2000)). These replots lead to the graphical determination of Ki values from the negative intercept of the line with the I-axis. […] Similar plots were constructed for all conjugates. The Ki value is a very good measure for the accurate potency of the polyamine-retinoid conjugates.
(§1) RNase P assays were carried out at 37° C. in 20 μbuffer D (50 mM Tris/HCl pH 7.6, 10 mM NH4Cl, 5 mM MgCl2 and 5 mM dithiothreitol) if RNase P isolated from D. discoideum was used (Stathopoulos et al.; EUR. J. BIOCHEM. 228, 976 (1995)) or buffer K (50 mM Tris/HCl pH 7.5, 100 mM NH4Cl, 5 mM MgCl2 and 5 mM dithiothreitol) if RNase P isolated from human epidermal keratinocytes was used (Drainas et al, unpublished data), containing 2-5 finol pre-tRNA^ser substrate (an in vitro labeled transcript of the Schizosaccharoinyces pombe tRNA^ser gene supSI) and 1.3 μg protein from the RNase P fraction. Stock solutions of retinoids (natural or synthetic), are prepared in 100% dimethylosulfoxide (DMSO). When retinoids are used, enzyme assays are carried out in the presence of 10% DMSO. The reactions were stopped by addition of 5 μl stop dye (80% formamide, 50 mM EDTA, 0.1% bromophenol blue, 0.1% xylene cyanol). Reaction products were resolved on a denaturing 10% polyacrylamide/8 M urea gel and visualized by autoradiography without drying. Activity was quantified by Cerenkov counting of excised gel slices.

[4] = target: RNase P from Dictyostelium discoideum; experiment: RNase P inhibition (pre-tRNA(Ser) cleavage, double reciprocal plots and slope replots); assay type: biochemical; settings: D. discoideum RNase P; 37° C., buffer D, 10% DMSO; from negative intercept of the slope replots
Excerpt: Inhibitory Activity on RNAse P. We have developed a method by which we can estimate rapidly the biological activity of the polyamine-retinoid conjugates. This method is based on the effect of the polyamine-retinoid conjugates on RNase P activity and is described in detail under the EXAMPLE 7. All synthesized conjugates were screened for their effect on RNase P activity by constructing the dose response curves. […] The accurate estimation of the inhibitory potency on the RNAse P of the strongest polyamine-retinoid conjugates were elucidated by detailed kinetic analysis of their effect on D. discoideum or human epidermal keratinocytes RNase P activity. In order to carry out such analysis, the initial velocity in the presence or absence of the conjugate was determined from the initial slopes of time plots. The data plotted in double reciprocal plots (1/v versus 1/[S]) with increasing concentrations of polyamine-retinoid conjugates and the Ki values (the dissociation constant of the inhibitor (I), where I is a polyamine-retinoid conjugate, with the enzyme) were determined from the replots of the slopes of the double reciprocal plots versus the inhibitor's concentration (Papadimou et al., J. BIOL. CHEM. 273, 24375 (1998), Papadimou et al., SKIN PHARMACOL. APPL. SKIN PHYSIOL. 13, 345 (2000)). These replots lead to the graphical determination of Ki values from the negative intercept of the line with the I-axis. […] Similar plots were constructed for all conjugates. The Ki value is a very good measure for the accurate potency of the polyamine-retinoid conjugates. […] Similar Ki values were obtained with normal human epidermal keratinocytes RNase P.
as §1

[5] = Manfredini et al., J. MED. CHEM., 40, 3851 (1997); cited from earlier work
[6] = test system: IL-2 production by peripheral blood mononuclear cells; experiment: Intracellular IL-2 in PMA/ionomycin-stimulated peripheral blood mononuclear cells (flow cytometry); assay type: cell-based, human
Procedure: (§2) Anti-Inflammatory Activity. Preliminary experiments were performed to determine the optimum conditions for IL-2 and IFN-γ detection intracellularly (data not shown), which mainly involved determination of brefeldin, ionomycin and PMA concentrations and duration of the incubation period and of the brefeldin presence. It was determined that the addition at the initiation of the incubation period of 5 ng/ml of PMA in combination with 250 ng/ml of ionomycin, as well as the addition for the last 2 h of a 4 h incubation period of 5 μg/ml of brefeldin, were accompanied by a peak release of both cytokines in the intracellular space.
(§3) For the purpose of the study, peripheral blood mononuclear cells (PBMC) from ten healthy volunteers (age 33-52 yrs) were incubated in 1 ml volume (RPMI 1640/10% FCS) for varying time periods at 37° C. in a CO2 (5%) incubator in the presence or absence of PMA (Sigma, St Louis, Mo.), ionomycin (Sigma, St Louis, Mo.) and/or the polyamine-retinoid conjugate (10^−4, 10^−5, 10^−6 M) as well as a protein transport inhibitor, brefeldin (Sigma, St Louis, Mo.) to prevent cytokine secretion in the extracellular space.
(§4) Following this incubation, PBMC were stained with either an anti-CD4-FITC or anti-CD8-FITC monoclonal antibody (Beckton Dikinson Hellas, Athens, Greece) in a PBS buffer containing 0.5% BSA and 0.01% NaN3, and were subsequently fixed with paraformaldehyde and incubated overnight. In the next step, fixed PBMCs were washed and resuspended in a PBS buffer containing 0.5% BSA, 0.5% saponin (Sigma, St Louis, Mo.) (to permeabilize cells) and 0.01% NaN3. Fixed PBMC were subsequently stained with an anti-IL-2/PE or anti-IFN-γ/PE monoclonal antibody (Diaclone, Besancon, France) and analysed for intracellular expression of IL-2 or IFN-γ and membrane expression of the CD4 or CD8 antigens in a FACSCAN flow cytometer. Throughout this step, saponin-supplied PBS was used, since its permeabilisation effect is reversible. The immunofluorescence cut-off was set up in unstimulated cultures as background and results were expressed either as the percentage of CD4/IL-2+ and CD8/IL-2+ (FIG. 9) and CD8/IFN-γ^+ and CD4/IFN-γ^+ (FIG. 11) cells, or alternatively as their mean fluorescence intensity (FIGS. 10 and 12, respectively).

[7] = test system: IFN-γ production by peripheral blood mononuclear cells; experiment: Intracellular IFN-γ in PMA/ionomycin-stimulated peripheral blood mononuclear cells (flow cytometry); assay type: cell-based, human
Procedure: as §2, §3
as §4, with “In the next step, fixed PBMCs were washed and resuspended in a PBS buffer containing 0.5% BSA, 0.5% saponin (Sigma, St Louis, Mo.) (to permeabilize cells) and 0.01% NaN3.” left out, “Throughout this step, saponin-supplied PBS was used, since its permeabilisation effect is reversible.” left out

| Structure (SMILES) | Ki [4] [µM] | inhibition of the enzyme ribonuclease P (RNase P) [1] | inhibition of ribonuclease P (RNase P) [2] | Ki [3] [µM] | other results |
| --- | --- | --- | --- | --- | --- |
| O=C1c2c(O)cccc2Cc2cccc(O)c21 [anthralin] |  | inhibit the enzyme ribonuclease P |  |  |  |
| C=C1/C(=C\C=C2/CCC[C@]3(C)[C@@H]([C@H](C)/C=C/[C@@H](O)C4CC4)CC[C@@H]23)C[C@@H](O)C[C@@H]1O [calcipotriol] |  | inhibit the enzyme ribonuclease P | inhibit |  |  |
| CC(C=CC1=C(C)CCCC1(C)C)=CC=CC(C)=CC(=O)NCCCNCCCCNCCCN [3DIIa, N^1-retinoylspermine] |  |  |  | 2.4 |  |
| CC1=C(/C=C/C(C)=C/C=C/C(C)=C/C(=O)NCCCNC(=O)/C=C(C)/C=C/C=C(C)/C=C/C2=C(C)CCCC2(C)C)C(C)(C)CCC1 [N^1, N^3-diretinoyl-1,3-diaminopropane] |  |  |  |  | cytostatic activity [5]: low cytostatic activity |
| CC1=C(/C=C/C(C)=C/C=C/C(C)=C/C(=O)O)C(C)(C)CCC1 [all-trans-Retinoic acid (RA), all-trans-retinoic acid] |  | inhibit the enzyme ribonuclease P | inhibit | 15 |  |
| CC1=C(/C=C/C(C)=C/C=C/C(C)=C/CO)C(C)(C)CCC1 [Retinol, retinol] |  | inhibit the enzyme ribonuclease P | inhibit | 1480 |  |
| CC(C=CC1=C(C)CCCC1(C)C)=CC=CC(C)=CC(=O)N(CCCN)CCCCN(CCCN)C(=O)C=C(C)C=CC=C(C)C=CC1=C(C)CCCC1(C)C [3DIIIa, N^4,N^9-Bis(All-Trans-Retinoyl)Spermine] |  |  |  | 1.1 |  |
| COc1cc(C)c(/C=C/C(C)=C/C=C/C(C)=C/C(=O)O)c(C)c1C [Acitretin (Aci), acitretin] |  | inhibit the enzyme ribonuclease P | inhibit | 8 |  |
| CC1=C(/C=C/C(C)=C/C=C/C(C)=C\C(=O)O)C(C)(C)CCC1 [Isotretinoin, 13-cis-retinoic acid] |  | inhibit the enzyme ribonuclease P | inhibit | 20 |  |

More lines, main results first:

| Ki [4] [µM] | Structure (SMILES) | inhibition of the enzyme ribonuclease P (RNase P) [1] | inhibition of ribonuclease P (RNase P) [2] | Ki [3] [µM] | other results |
| --- | --- | --- | --- | --- | --- |
| 45 | C/C(=C\c1ccc(C(=O)O)cc1)c1ccc2c(c1)C(C)(C)CCC2(C)C [Ro 13-7410] | inhibit the enzyme ribonuclease P | inhibit |  |  |
| 2.45 | COc1cc(C)c(/C=C/C(C)=C/C=C/C(C)=C/C(=O)NCCCNCCCCNCCCN)c(C)c1C [N^1-Aci-Spermine (3DIIb). 3 HCl, N^1-Aci-Spermine] |  |  |  |  |
| 4350 | CCOC(=O)c1ccc(/C=C(\C)c2ccc3c(c2)C(C)(C)CCC3(C)C)cc1 [Ro 13-6298] | inhibit the enzyme ribonuclease P | inhibit |  |  |
| 3600 | CCS(=O)(=O)c1ccc(/C=C(\C)c2ccc3c(c2)C(C)(C)CCC3(C)C)cc1 [Ro 15-1570] | inhibit the enzyme ribonuclease P | inhibit |  |  |
| 0.95 | COc1cc(C)c(/C=C/C(C)=C/C=C/C(C)=C/C(=O)NCCCNCCCCNCCCNC(=O)/C=C(C)/C=C/C=C(C)/C=C/c2c(C)cc(OC)c(C)c2C)c(C)c1C [N^1,N^12-Aci2-Spermine (3DIb). 2 HCl, N^1,N^12-Aci2-Spermine] |  |  |  |  |
| 0.5 | CC1=C(/C=C/C(C)=C/C=C/C(C)=C/C(=O)NCCCNCCCCNCCCNC(=O)/C=C(C)/C=C/C=C(C)/C=C/C2=C(C)CCCC2(C)C)C(C)(C)CCC1 [N^1,N^12-RA2-Spermine (3DIa), N^1,N^12-Bisretinoylspermine] |  |  |  | intensity of fluorescence (MFI) of CD4+/IL-2+ cells ([6]; 10^−4 M, PMA/ionomycin-induced): decrease; intensity of fluorescence (MFI) of CD8+/IL-2+ cells ([6]; 10^−4 M, PMA/ionomycin-induced): decrease; percentage of CD4+/IL-2+ cells ([6]; 10^−4 M, PMA/ionomycin-induced): decrease; percentage of CD8+/IL-2+ cells ([6]; 10^−4 M, PMA/ionomycin-induced): decrease; effect on PMA/ionomycin-induced IL-2 (percentage of CD4+/IL-2+ and CD8+/IL-2+ cells, intensity of fluorescence) ([6]; 10^−5 and 10^−6 M): minimal or no effect; CD4+/IFN-γ+ cell intensity of fluorescence ([7]; 10^−4 M, PMA/ionomycin-induced): decrease; percentage of CD8+/IFN-γ+ cells ([7]; 10^−4 M, PMA/ionomycin-induced): decrease; effect on IFN-γ (CD4+/IFN-γ+ intensity of fluorescence, percentage of CD8+/IFN-γ+ cells) ([7]; two lower concentrations, 10^−5 and 10^−6 M): minimal or no effect |
